Laboratory results as given in patent publication US5440016A, “Peptides of the formula (KFmoc) ZZZ and their uses” (priority 1993, dated 1995).
Square brackets hold non-standard residues; d marks the D form. Peptide text beside a SMILES is read from it. * marks the point of attachment. Phe(4-NO2) = N[C@@H](Cc1ccc([N+](=O)[O-])cc1)C(=O)O; Met(O2) = CS(=O)(=O)CC[C@H](N)C(=O)O; Fmoc = O=C(OCC1c2ccccc2-c2ccccc21)*; Orn = NCCC[C@H](N)C(=O)O; Thz = O=C(O)[C@@H]1CSCN1; Abu = CC[C@H](N)C(=O)O; Aib = CC(C)(N)C(=O)O; βAla = NCCC(=O)O

What follows are compounds tested on Human red blood cells (RBCs) (assay: Hemolytic activity). Details: Table 20, lower part.
Format: cell-based
Procedure: Each assay was carried out in 96-well culture tissue plates. Four wells per plate contain 125 μl of a non-peptide positive control (1% Triton in de-ionized water), and four wells per plate contain 125 μl of a control blank, phosphate buffered saline (PBS). The hemolytic peptide melittin was used as comparative control. The controls served to detect possible contamination and to calculate the percent hemolysis of each peptide. Human red blood cells (RBCs) were washed with PBS and centrifuged to separate them from the serum. The cells were then resuspended in PBS to a final suspension of 0.5% RBC. 125 μl of this suspension was added to the peptides and controls solution. The release of hemoglobin resulting from the cell lysis was determined by measuring the OD at 414 nm of 100 μl of the supernatant.

Compared with CS(=O)(=O)CC[C@H](NC(=O)[C@@H](Cc1ccccc1)NC(=O)[C@H](Cc1c[nH]c2ccccc12)NC(=O)[C@H](CCCCN)NC(=O)OCC1c2ccccc2-c2ccccc21)C(N)=O [(KFmoc)Wf(MetO2)-NH2] (Fmoc-KW[dF][Met(O2)]-NH2), NCCCC[C@H](NC(=O)OCC1c2ccccc2-c2ccccc21)C(=O)N[C@@H](Cc1c[nH]c2ccccc12)C(=O)N[C@H](Cc1ccccc1)C(=O)N[C@@H](CCCN)C(N)=O [(KFmoc)Wf(Orn)-NH2] (Fmoc-KW[dF][Orn]-NH2) is higher in “HD50 (concentration necessary to lyse 50% of the cells)” value: 44 μg/m for the first, 64 μg/m for the second.

With NCCCC[C@H](NC(=O)OCC1c2ccccc2-c2ccccc21)C(=O)N[C@@H](Cc1c[nH]c2ccccc12)C(=O)N[C@H](Cc1ccccc1)C(=O)N1CSC[C@H]1C(N)=O [(KFmoc)Wf(Thiopro)-NH2] (Fmoc-KW[dF][Thz]-NH2) the “HD50 (concentration necessary to lyse 50% of the cells)” value was 45 μg/m.

Same assay, conditions: Tables 18-21

Going from CC(C)C[C@H](NC(=O)[C@H](CCCCN)NC(=O)[C@H](Cc1c[nH]c2ccccc12)NC(=O)[C@H](CCCCN)NC(=O)OCC1c2ccccc2-c2ccccc21)C(N)=O [(KFmoc)WKL-NH2] (Fmoc-KWKL-NH2) to CC(C)[C@H](NC(=O)[C@H](CCCCN)NC(=O)[C@H](Cc1c[nH]c2ccccc12)NC(=O)[C@H](CCCCN)NC(=O)OCC1c2ccccc2-c2ccccc21)C(N)=O [(KFmoc)WKV-NH2] (Fmoc-KWKV-NH2), the “HD50 (concentration necessary to lyse 50% of the cells)” value rises from 73 µg/mL to 137 µg/mL (1.9-fold).

Going from CSCC[C@H](NC(=O)[C@H](CCCCN)NC(=O)[C@H](Cc1c[nH]c2ccccc12)NC(=O)[C@H](CCCCN)NC(=O)OCC1c2ccccc2-c2ccccc21)C(N)=O [(KFmoc)WKM-NH2] (Fmoc-KWKM-NH2) to NCCCC[C@H](NC(=O)OCC1c2ccccc2-c2ccccc21)C(=O)N[C@@H](Cc1c[nH]c2ccccc12)C(=O)N[C@@H](CCCCN)C(=O)N[C@@H](CO)C(N)=O [(KFmoc)WKS-NH2] (Fmoc-KWKS-NH2), the “HD50 (concentration necessary to lyse 50% of the cells)” value rises from 102 µg/mL to 206 µg/mL (2-fold).

First: NCCCC[C@H](NC(=O)OCC1c2ccccc2-c2ccccc21)C(=O)N[C@@H](Cc1c[nH]c2ccccc12)C(=O)N[C@@H](CCCCN)C(=O)N[C@@H](CC(N)=O)C(N)=O [(KFmoc)WKN-NH2] (Fmoc-KWKN-NH2)
Second: N=C(N)NCCC[C@H](NC(=O)[C@H](CCCCN)NC(=O)[C@H](Cc1c[nH]c2ccccc12)NC(=O)[C@H](CCCCN)NC(=O)OCC1c2ccccc2-c2ccccc21)C(N)=O [(KFmoc)WKR-NH2] (Fmoc-KWKR-NH2)
The “HD50 (concentration necessary to lyse 50% of the cells)” value of the first is 1.9-fold lower: 204 µg/mL for the first, 387 µg/mL for the second.

First: C[C@@H](O)[C@H](NC(=O)[C@H](CCCCN)NC(=O)[C@H](Cc1c[nH]c2ccccc12)NC(=O)[C@H](CCCCN)NC(=O)OCC1c2ccccc2-c2ccccc21)C(N)=O [(KFmoc)WKT-NH2] (Fmoc-KWKT-NH2)
Second: NCCCC[C@H](NC(=O)OCC1c2ccccc2-c2ccccc21)C(=O)N[C@@H](Cc1c[nH]c2ccccc12)C(=O)N[C@@H](CCCCN)C(=O)N[C@@H](Cc1ccc(O)cc1)C(N)=O [(KFmoc)WKY-NH2] (Fmoc-KWKY-NH2)
The “HD50 (concentration necessary to lyse 50% of the cells)” value of the first is 2.4-fold higher: 367 µg/mL for the first, 156 µg/mL for the second.

NCCCC[C@H](NC(=O)OCC1c2ccccc2-c2ccccc21)C(=O)N[C@@H](Cc1c[nH]c2ccccc12)C(=O)N[C@@H](CCCCN)C(=O)N[C@@H](Cc1c[nH]c2ccccc12)C(N)=O [(KFmoc)WKW-NH2] (Fmoc-KWKW-NH2) and NCCCC[C@H](NC(=O)OCC1c2ccccc2-c2ccccc21)C(=O)N[C@@H](Cc1c[nH]c2ccccc12)C(=O)N[C@H](Cc1ccccc1)C(=O)N[C@H](Cc1c[nH]c2ccccc12)C(N)=O [(KFmoc)Wfw-NH2] (Fmoc-KW[dF][dW]-NH2) are within 1.5-fold of each other in “HD50 (concentration necessary to lyse 50% of the cells)” value: 37 µg/mL for the first, 36 µg/mL for the second.

NCCCC[C@H](NC(=O)OCC1c2ccccc2-c2ccccc21)C(=O)N[C@@H](Cc1c[nH]c2ccccc12)C(=O)N[C@@H](Cc1ccc(O)cc1)C(=O)N[C@@H](CCCN)C(N)=O [(KFmoc)WY(Orn)-NH2] (Fmoc-KWY[Orn]-NH2) and NCCCC[C@H](NC(=O)[C@H](Cc1ccc(O)cc1)NC(=O)[C@H](Cc1c[nH]c2ccccc12)NC(=O)[C@H](CCCCN)NC(=O)OCC1c2ccccc2-c2ccccc21)C(N)=O [(KFmoc)WYK-NH2] (Fmoc-KWYK-NH2) are within 1.5-fold of each other in “HD50 (concentration necessary to lyse 50% of the cells)” value: 62 µg/mL for the first, 65 µg/mL for the second.

First: NCCCC[C@H](NC(=O)OCC1c2ccccc2-c2ccccc21)C(=O)N[C@@H](Cc1c[nH]c2ccccc12)C(=O)N[C@@H](Cc1ccc(O)cc1)C(=O)N1CSC[C@H]1C(N)=O [(KFmoc)WY(Thiopro)-NH2] (Fmoc-KWY[Thz]-NH2)
Second: NCCCC[C@H](NC(=O)OCC1c2ccccc2-c2ccccc21)C(=O)N[C@@H](Cc1c[nH]c2ccccc12)C(=O)N[C@@H](Cc1ccc(O)cc1)C(=O)N1CCC[C@H]1C(N)=O [(KFmoc)WYP-NH2] (Fmoc-KWYP-NH2)
The “HD50 (concentration necessary to lyse 50% of the cells)” value of the first is 5-fold higher: 488 µg/mL for the first, 97 µg/mL for the second.

First: CC[C@H](NC(=O)[C@H](Cc1ccc(O)cc1)NC(=O)[C@H](Cc1c[nH]c2ccccc12)NC(=O)[C@H](CCCCN)NC(=O)OCC1c2ccccc2-c2ccccc21)C(N)=O [(KFmoc)WY(aABA)-NH2] (Fmoc-KWY[Abu]-NH2)
Second: NCCCC[C@H](NC(=O)OCC1c2ccccc2-c2ccccc21)C(=O)N[C@@H](Cc1c[nH]c2ccccc12)C(=O)N[C@@H](Cc1ccc(O)cc1)C(=O)N[C@@H](CS)C(N)=O [(KFmoc)WYC-NH2] (Fmoc-KWYC-NH2)
The “HD50 (concentration necessary to lyse 50% of the cells)” value of the first is 2.3-fold lower: 114 µg/mL for the first, 267 µg/mL for the second.

Going from NCCCC[C@H](NC(=O)OCC1c2ccccc2-c2ccccc21)C(=O)N[C@@H](Cc1c[nH]c2ccccc12)C(=O)N[C@@H](Cc1ccc(O)cc1)C(=O)NCC(N)=O [(KFmoc)WYG-NH2] (Fmoc-KWYG-NH2) to C[C@@H](O)[C@H](NC(=O)[C@H](Cc1ccc(O)cc1)NC(=O)[C@H](Cc1c[nH]c2ccccc12)NC(=O)[C@H](CCCCN)NC(=O)OCC1c2ccccc2-c2ccccc21)C(N)=O [(KFmoc)WYT-NH2] (Fmoc-KWYT-NH2), the “HD50 (concentration necessary to lyse 50% of the cells)” value falls from 376 µg/mL to 53 µg/mL (7.1-fold).

Compared with NCCCC[C@H](NC(=O)OCC1c2ccccc2-c2ccccc21)C(=O)N[C@@H](Cc1c[nH]c2ccccc12)C(=O)N[C@@H](Cc1ccc(O)cc1)C(=O)N[C@@H](Cc1c[nH]cn1)C(N)=O [(KFmoc)WYH-NH2] (Fmoc-KWYH-NH2), NCCCC[C@H](NC(=O)OCC1c2ccccc2-c2ccccc21)C(=O)N[C@@H](Cc1c[nH]c2ccccc12)C(=O)N[C@H](Cc1ccccc1)C(=O)N[C@@H](Cc1ccc(O)cc1)C(N)=O [(KFmoc)WfY-NH2] (Fmoc-KW[dF]Y-NH2) is 3.3-fold lower in “HD50 (concentration necessary to lyse 50% of the cells)” value: 139 µg/mL for the first, 42 µg/mL for the second.

First: N=C(N)NCCC[C@H](NC(=O)[C@H](Cc1ccc(O)cc1)NC(=O)[C@H](Cc1c[nH]c2ccccc12)NC(=O)[C@H](CCCCN)NC(=O)OCC1c2ccccc2-c2ccccc21)C(N)=O [(KFmoc)WYR-NH2] (Fmoc-KWYR-NH2)
Second: N=C(N)NCCC[C@H](NC(=O)[C@@H](Cc1ccccc1)NC(=O)[C@H](Cc1c[nH]c2ccccc12)NC(=O)[C@H](CCCCN)NC(=O)OCC1c2ccccc2-c2ccccc21)C(N)=O [(KFmoc)WfR-NH2] (Fmoc-KW[dF]R-NH2)
The “HD50 (concentration necessary to lyse 50% of the cells)” value of the first is 2.7-fold lower: 45 µg/mL for the first, 122 µg/mL for the second.

CC[C@H](C)[C@H](NC(=O)[C@@H](Cc1ccccc1)NC(=O)[C@H](Cc1c[nH]c2ccccc12)NC(=O)[C@H](CCCCN)NC(=O)OCC1c2ccccc2-c2ccccc21)C(N)=O [(KFmoc)WfI-NH2] (Fmoc-KW[dF]I-NH2) and CC(C)C[C@H](NC(=O)[C@@H](Cc1ccccc1)NC(=O)[C@H](Cc1c[nH]c2ccccc12)NC(=O)[C@H](CCCCN)NC(=O)OCC1c2ccccc2-c2ccccc21)C(N)=O [(KFmoc)WfL-NH2] (Fmoc-KW[dF]L-NH2) are within 1.5-fold of each other in “HD50 (concentration necessary to lyse 50% of the cells)” value: 208 µg/mL for the first, 294 µg/mL for the second.

Compared with NCCCC[C@H](NC(=O)OCC1c2ccccc2-c2ccccc21)C(=O)N[C@@H](Cc1c[nH]c2ccccc12)C(=O)N[C@H](Cc1ccccc1)C(=O)N1CCC[C@H]1C(N)=O [(KFmoc)WfP-NH2] (Fmoc-KW[dF]P-NH2), CC[C@@H](C)[C@@H](NC(=O)[C@@H](CS)NC(=O)[C@H](CCCCN)NC(=O)OCC1c2ccccc2-c2ccccc21)C(=O)N[C@@H](Cc1ccc([N+](=O)[O-])cc1)C(N)=O [(KFmoc)ci(NO2 F)-NH2] (Fmoc-K[dC][dI][Phe(4-NO2)]-NH2) is 9.1-fold higher in “HD50 (concentration necessary to lyse 50% of the cells)” value: 40 µg/mL for the first, 363 µg/mL for the second.

CC[C@@H](C)[C@@H](NC(=O)[C@@H](CS)NC(=O)[C@H](CCCCN)NC(=O)OCC1c2ccccc2-c2ccccc21)C(=O)NCCC(N)=O [(KFmoc)ci(Bala)-NH2] (Fmoc-K[dC][dI][βAla]-NH2) and CC[C@H](NC(=O)[C@H](NC(=O)[C@@H](CS)NC(=O)[C@H](CCCCN)NC(=O)OCC1c2ccccc2-c2ccccc21)[C@H](C)CC)C(N)=O [(KFmoc)ci(aABA)-NH2] (Fmoc-K[dC][dI][Abu]-NH2) are within 1.5-fold of each other in “HD50 (concentration necessary to lyse 50% of the cells)” value: 37 µg/mL for the first, 29 µg/mL for the second.

First: CC[C@@H](C)[C@@H](NC(=O)[C@@H](CS)NC(=O)[C@H](CCCCN)NC(=O)OCC1c2ccccc2-c2ccccc21)C(=O)N[C@@H](CCS(C)(=O)=O)C(N)=O [(KFmoc)ci(MetO2)-NH2] (Fmoc-K[dC][dI][Met(O2)]-NH2)
Second: CC[C@@H](C)[C@@H](NC(=O)[C@@H](CS)NC(=O)[C@H](CCCCN)NC(=O)OCC1c2ccccc2-c2ccccc21)C(=O)N[C@@H](CCCN)C(N)=O [(KFmoc)ci(Orn)-NH2] (Fmoc-K[dC][dI][Orn]-NH2)
The “HD50 (concentration necessary to lyse 50% of the cells)” value of the first is 1.9-fold lower: 40 µg/mL for the first, 77 µg/mL for the second.

In the case of CC[C@@H](C)[C@@H](NC(=O)[C@@H](CS)NC(=O)[C@H](CCCCN)NC(=O)OCC1c2ccccc2-c2ccccc21)C(=O)NC(C)(C)C(N)=O [(KFmoc)ci(aAIB)-NH2] (Fmoc-K[dC][dI][Aib]-NH2), the “HD50 (concentration necessary to lyse 50% of the cells)” value is reported as 28 µg/mL.
